Source: patent US7902254B1, “Method for treating conditions mediated by PPAR using macelignan” (Newtree Co., Ltd., priority 2005, dated 2011)

Key:
human PPARα = target: T1, human PPARα (Homo sapiens, UniProt Q07869); test: PPARα activation, PPRE-controlled luciferase reporter in transfected COS-7 cells; assay type: cell-based; conditions: 25 μM, 24 hours, control 0.01% DMSO
T1 construct: expressed in transfected cells; host or cells: COS-7 monkey kidney cells (ATCC CRL-1651)
T1 sequence (Q07869 192-468 limits assumed): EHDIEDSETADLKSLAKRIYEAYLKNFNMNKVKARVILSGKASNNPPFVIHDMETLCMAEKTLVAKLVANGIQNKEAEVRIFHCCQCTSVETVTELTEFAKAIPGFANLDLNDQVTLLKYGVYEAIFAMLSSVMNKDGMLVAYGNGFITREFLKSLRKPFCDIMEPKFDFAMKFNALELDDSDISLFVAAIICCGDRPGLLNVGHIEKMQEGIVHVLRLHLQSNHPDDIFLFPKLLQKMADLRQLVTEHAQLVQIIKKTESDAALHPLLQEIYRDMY
Procedure: To investigate whether macelignan acts as a ligand of PPAR or not, it was tested according to known method (Cell, 68: 879-887, 1992; J. Biol. Chem., 272: 25252-25259, 1997) using a plasmid expressing PPAR and a vector having PPRE-controlled luciferase genes.
Activation of luciferase expression was measured by transfecting COS-7 monkey kidney cells (ATCC CRL-1651) with the PPARα plasmid and pFR-luciferase vector (Stratagene, USA), and then by treating the transfected cells with macelignan isolated from Example 1 for 24 hours. The PPARα plasmid was obtained by isolating polynucleotide encoding the amino acid sequence of amino acids […] (i.e. PPARα ligand-bound domain of the total amino acid sequence of human PPARα (Genbank Acession No. S74349)) with the primers of SEQ ID NO: 1 ([…]) and SEQ ID NO: 2 (TGGGGTACCTGGCTGAT) by RT-PCR. Then, the polynucleotide was cloned between the restriction enzyme sites of BamHI and KpnI of pFA vector (Stratagene, USA). Herein, mRNA used as the template in RT-PCR was obtained by separating the total RNA in cultured Hep G2 (ATCC HB-8065) human liver cells by using TRIZOL (Invitrogen, USA). RT-PCR was performed by synthesizing cDNA using reverse transcriptase at 42° C. for 60 minutes, and 30 cycles of 1 minute at 95° C., 30 seconds at 54° C. and 2 minutes at 72° C. using Taq polymerase. At this time, the test groups treated with different concentrations (1, 5, 10 and 25 μM) of macelignan according to the present invention were compared to the control treated with 0.01% DMSO, and to the groups treated with different concentrations (1, 5, 10 and 25 μM) of Wy-14643 (Sigma, USA), a compound known as a PPARα ligand.

[1] = tested on: obesity/diabetes mice (db/db mice); test: Effect upon hyperlipidemia and cardiovascular diseases in obesity/diabetes mouse model; assay type: in vivo; conditions: 10 mg/kg oral, 14 days
Procedure: To investigate effects of macelignan upon the treatment of hyperlipidemia and cardiovascular diseases, seven mice of 10 week-aged obesity/diabetes mice (db/db mice) were used per test group. To the test groups, macelignan suspended in 0.25% carboxymethyl cellulose was orally administered in an administration dose of 5 mg/kg (body weight), 10 mg/kg (body weight) and 25 mg/kg (body weight), once per day at a predetermined time, for 14 days. As a control, 0.25% carboxymethyl cellulose was orally administered alone to normal mice in the same dose as administered to the test group. As another control, 0.25% carboxymethyl cellulose was orally administered alone to obesity/diabetes mice in the same dose as administered to the test group. As still another control, 10 mg/kg (body weight) of troglitazone was orally administered. Fourteen days after the administration, triglyceride concentration in blood (triglyceride measuring kit, Wako, Japan), free fatty acid concentration in blood (free fatty acid measuring kit, Wako, Japan), total cholesterol content in blood (ASAN T-CHO-Lq Reagents, Asan Pharmaceutical Co. Ltd., Korea), HDL-cholesterol content in blood (ASAN HDL-Cholesterol, Asan Pharmaceutical Co. Ltd., Korea), IL-6 content in blood (IL-6 Quantikine ELISA, R&D systems, USA) and TNF-α content in blood were measured for the test groups and the controls.

[2] = tested on: obesity/diabetes mice (db/db mice); test: Anti-diabetes effect in obesity/diabetes mouse model; assay type: in vivo; conditions: 10 mg/kg oral; for OGTT blood sugar: 12th day
Source text: A mouse (db/db mouse; The Jackson Laboratory, USA) used in the present invention as an obesity/diabetes model is deficient in leptin genes and cannot control its appetite, and thus takes an excessive amount of food continuously. […] Thus, it can be a typical model of obesity and metabolic diseases. Additionally, it has a higher blood sugar level and can be a typical model of non-insulin-dependent diabetes mellitus. To investigate the effect of preventing and treating diabetes of macelignan, seven mice of 10 week-aged obesity/diabetes mice (db/db mice) were used per test group. To the test groups, macelignan suspended in 0.25% carboxymethyl cellulose was orally administered with the dose of 5 mg/kg (body weight), 10 mg/kg (body weight) and 25 mg/kg (body weight), once per day at a predetermined time, for 14 days. As a control, 0.25% carboxymethyl cellulose was orally administered alone to normal mice in the same dose as administered to the test group. As another control, 0.25% carboxymethyl cellulose was orally administered alone to obesity/diabetes mice in the same dose as administered to the test group. As still another control, 10 mg/kg (body weight) of troglitazone was orally administered. Blood sugar levels of the obesity/diabetes mice were determined from six days before the administration, once per three days. On the 12th day after the oral administration, the test group and the controls were subjected to the Oral Glucose Tolerance Test (OGTT). For this test, obesity/diabetes mice in the test group and the controls were fasted for at least 18 hours, glucose was orally administered to the mice in a dose of 3 g/kg (body weight), and then variations in the blood sugar were measured at 0 minutes, 30 minutes, 60 minutes and 120 minutes after the glucose administration. Additionally, on the 14th day of the oral administration, the final blood sugar level, insulin content in blood (mouse insulin ELISA Kit, Linco Research, o. EZRMI-BK, USA) and adiponectin content in blood (Adiponectin Quantikine ELISA Kit, R&D systems, No. MRP300, USA) were analyzed.

SMILES | luciferase activity higher than the control (PPARα) (human PPARα) | Free fatty acid in blood [1] | HDL-cholesterol in blood [1] | IL-6 in blood [1] | TNF-α in blood [1] | Total cholesterol in blood [1] | Triglyceride in blood [1] | OGTT blood sugar ([2]; 0 min. after glucose 3 g/kg) | Adiponectin concentration in blood ([2]; 14th day, db/db mice) | Insulin concentration in blood ([2]; 14th day, db/db mice) | OGTT blood sugar ([2]; 30 mins. after glucose 3 g/kg) | OGTT blood sugar ([2]; 60 mins. after glucose 3 g/kg) | OGTT blood sugar ([2]; 120 mins. after glucose 3 g/kg)
Cc1cccc(Nc2cc(Cl)nc(SCC(=O)O)n2)c1C [Wy-14643, reference compound] | about 16 times |  |  |  |  |  |  |  |  |  |  |  | 
Cc1c(C)c2c(c(C)c1O)CCC(C)(COc1ccc(CC3SC(=O)NC3=O)cc1)O2 (stereo not shown) [troglitazone, reference compound] |  | 1.22 ± 0.27 mEq/l | 43.9 ± 6.34 mg/dL | 10.24 ± 3.60 pg/mL | 30.49 ± 13.18 pg/mL | 134 ± 34.9 mg/dL | 112.57 ± 57.47 mg/dL | 303.43 ± 37.83 mg/dL | 6682.33 ± 250.05 ng/mL | 18.57 ± 5.88 ng/mL | 610.57 ± 76.21 mg/dL | 523.70 ± 17.10 mg/dL | 456.41 ± 54.69 mg/dL
